The target in the assay is recombinant eIF4E (Homo sapiens (Human), UniProt P06730). Description: Fluorescence polarization competition assay for eIF4E binding potency. The gist of the method:
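FP readout; IC50 fit from 8-point, 3-fold series. 75 nM eIF4E + 20 nM ATTO-550-labelled m7GDP probe, Tris pH 7.5/NaCl/DTT/Tween buffer, 1% DMSO final. 30 min RT equilibration, light-protected.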

Setting [1] is: fluorescence polarization competition, 75 nM recombinant eIF4E, 20 nM EDA-m7GDP-ATTO-550, IC50 class, read-out: elF4E FP.
Where [2] appears, read: inhibition of eIF4E/EDA-m7GDP-ATTO-550 binding by 50%, Table 4B calculated values, read-out: IC50.
Setting [3] is: inhibition of eIF4E/EDA-m7GDP-ATTO-550 binding, calculated IC50 values, Table 4B, read-out: IC50.

Read-outs that look alike come from different tables or passages of the source. Where only a bound is given, the exact number is not on record here.

Sequence of recombinant eIF4E (P06730 whole entry): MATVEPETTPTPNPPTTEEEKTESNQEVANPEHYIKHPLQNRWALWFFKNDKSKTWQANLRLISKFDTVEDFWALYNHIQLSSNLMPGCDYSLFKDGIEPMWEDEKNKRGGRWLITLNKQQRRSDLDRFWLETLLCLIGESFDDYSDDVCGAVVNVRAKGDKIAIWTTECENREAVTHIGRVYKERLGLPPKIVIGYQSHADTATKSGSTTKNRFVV

Regarding `N#Cc1cc2c(=O)n(CCOc3ccc(Cl)cc3-c3cc(C(=O)O)c(F)c(F)c3F)cnc2cn1` [compound 101], the IC50 is more than 1000 nM under setting [1] and 43800 nM under setting [2]. In the same order, the values of `Cc1nc2cc(C(F)(F)F)cc(C#N)c2c(=O)n1CCOc1ccc(C#N)nc1-c1ccnc2c(C(=O)O)csc12` [compound 292] are 50 to 1000 nM and 203 nM. For the compound `Cc1nc2cc(C(F)(F)F)c(N3CCN(C)CC3)c(C#N)c2c(=O)n1CCOc1ccc(Cl)cc1-c1ccnc2c(C#N)csc12` [compound 1254], the IC50 under setting [3] is 26.5 nM.

With `Cc1nc2cnc(N(C)C3CCN(CC(F)(F)C(F)F)CC3)c(C#N)c2c(=O)n1CC#Cc1ccc(Cl)cc1-c1ccnc2c(C(=O)O)csc12` [compound 1103], the IC50 was less than 50 nM under setting [1] and 14.8 nM under setting [2]. For the compound `Cc1nc2ccc3c(c2c(=O)n1CCOc1ccc(Cl)cc1-c1cccc(C(=O)O)c1)C(=O)N(C)C3` [compound 2011], the IC50 under setting [3] was 529 nM. On to `N#Cc1cncc2nc(CCC(=O)O)n(CCOc3ccc(Cl)cc3-c3ccccc3)c(=O)c12` [compound 48], for which the IC50 runs as follows: under setting [1], 50 to 1000 nM; under setting [2], 631 nM. As for `Cc1nc2cnc(CCCN(C)CCF)c(C#N)c2c(=O)n1CCOc1ccc(Cl)cc1-c1ccnc2c(C(=O)O)csc12` [compound 1345], the IC50 under setting [3] is 34.5 nM.

Take `O=C(O)c1cccc(-c2cc(Cl)ccc2OCCn2cnc3cc(F)ccc3c2=O)c1` [compound 3]: the IC50 reads like this: under setting [1], more than 1000 nM; under setting [2], 4720 nM.

On to `CCCc1ncc2nc(C)n(CCOc3ccc(Cl)cc3-c3cc(C)nc4c(C(=O)O)csc34)c(=O)c2c1C#N` [compound 1063], for which the IC50 under setting [1] is less than 50 nM. Consider `Cc1nc2cnc(C#CCN(C)C3(C)CC3)c(C#N)c2c(=O)n1CCOc1ccc(Cl)cc1-c1ccnc2c(C(=O)O)csc12` [compound 1346], for which the IC50 under setting [3] is 19.7 nM.

As for `CNS(=O)(=O)c1cc2c(=O)n(CCOc3ccc(Cl)cc3-c3cccc(C(=O)O)c3)cnc2cn1` [compound 32], the IC50 reads like this: under setting [1], 50 to 1000 nM; under setting [2], 190 nM. Consider `Cc1cc(-c2cc(Cl)ccc2OCCn2c(C)nc3cncc(C#N)c3c2=O)c2scc(C(=O)O)c2n1` [compound 597], for which the IC50 runs as follows: under setting [1], less than 50 nM; under setting [2], 46.8 nM. Taken in the same sequence, the figures for `Cc1nc2cc(C(F)(F)F)c(CC3CN(CC(F)F)C3)c(C#N)c2c(=O)n1CCOc1ccc(Cl)cc1-c1ccnc2c(C(=O)O)csc12` [compound 376] were less than 50 nM and 12.7 nM.

As to `Cc1nc2cnc(Nc3cc(F)cc(F)c3)cc2c(=O)n1CCOc1ccc(Cl)cc1-c1cccc(C(=O)O)c1` [compound 2002], the IC50 under setting [3] is 259 nM. For the compound `N#Cc1cc2c(=O)n(CCOc3ccc(Cl)cc3-c3cc(C(=O)O)c4cc[nH]c4n3)cnc2cn1` [compound 117], the IC50 is more than 1000 nM under setting [1] and more than 3000 nM under setting [2]. As for `CCN(c1ncc2nc(C)n(CC#Cc3ccc(Cl)cc3-c3ccnc4c(C(=O)NS(=O)(=O)c5ccncc5)csc34)c(=O)c2c1C#N)C1CCN(CC(F)(F)C(F)F)CC1` [compound 1708], the IC50 under setting [3] was 16.2 nM. Take `Cc1cc(-c2cc(Cl)ccc2OCCn2c(C)nc3cc(C(F)(F)F)c(N4CCS(=O)(=O)CC4)c(C#N)c3c2=O)c2scc(C(=O)O)c2n1` [compound 867]: the IC50 by setting is: under setting [1], less than 50 nM; under setting [2], 6.61 nM. In the same order, the values of `Cc1cc2cc(C#N)c(CN(C)C)c(C#N)c2c(=O)n1CCOc1ccc(Cl)cc1-c1ccnc2c(C(=O)O)csc12` [compound 511] are 50 to 1000 nM and 88 nM.

On to `Cc1nc2cc(C(F)(F)F)cc(C#N)c2c(=O)n1CCOc1ccc(Cl)cc1-c1ccc(C(=O)O)c(C(=O)O)c1` [compound 158], for which the IC50 under setting [1] is less than 50 nM and the IC50 under setting [2] was 48.3 nM.

Regarding `Cc1nc2cnc(C3CCC(F)(F)C3)c(C#N)c2c(=O)n1CCOc1ccc(Cl)cc1-c1ccnc2c(C(=O)O)csc12` (centres unmarked) [compound 1279], the IC50 under setting [3] was 8.91 nM. Consider `Cc1cc(-c2cc(Cl)ccc2OCCn2c(C)nc3c(C)nc(-c4ccc(F)cc4)c(C#N)c3c2=O)c2scc(C(=O)O)c2n1` [compound 474], for which the IC50 under setting [1] was less than 50 nM and the IC50 under setting [2] is 13.5 nM. As for `N#Cc1cc(C(F)(F)F)cc2nc(CF)n(CCOc3ccc(Cl)cc3-c3ccnc4c(C(=O)O)csc34)c(=O)c12` [compound 181], the IC50 runs as follows: under setting [1], 50 to 1000 nM; under setting [2], 62.3 nM. Take `Cc1nc2cnc(C#CC3CCCN3C3CC3)c(C#N)c2c(=O)n1CCOc1ccc(Cl)cc1-c1ccnc2c(C(=O)O)csc12` (centres unmarked) [compound 1344]: the IC50 under setting [3] is 18.3 nM. On to `O=C(O)c1cccc(-c2cc(Cl)ccc2OCCn2ccc3ccncc3c2=O)c1` [compound 6], for which the IC50 runs as follows: under setting [1], more than 1000 nM; under setting [2], 7390 nM. In the same order, the values of `Cc1nc2cc(C(F)(F)F)cc(C#N)c2c(=O)n1CCOc1ccc(Cl)cc1-c1ccnc2c(C(=O)O)cn(C)c12` [compound 320] are less than 50 nM and 43.5 nM. On to `Cc1nc2cnc(N(C)C3CCN(CC(F)(F)F)CC3)c(C#N)c2c(=O)n1CC#Cc1ccc(Cl)cc1-c1ccnc2c(C(=O)NS(=O)(=O)c3ccccc3)csc12` [compound 1548], for which the IC50 under setting [3] was 36.2 nM. For the compound `Cc1nc2cc(C(F)(F)F)cc(C#N)c2c(=O)n1CCOc1ccc(Cl)cc1-c1cc(CN)nc2c(C(=O)O)csc12` [compound 452], the IC50 was less than 50 nM under setting [1] and 46.6 nM under setting [2]. As for `Cc1nc2cnc(N(C)C3CCN(C4COC4)CC3)c(C#N)c2c(=O)n1CC#Cc1ccc(Cl)cc1-c1ccnc2c(C(=O)NS(C)(=O)=O)csc12` [compound 1561], under setting [3], the IC50 was 13 nM. For `Cc1nc2cc(C(F)(F)F)c(N3CCN(C)CC3)c(C#N)c2c(=O)n1CCOc1ccc(Cl)cc1-c1cccc(C(=O)O)c1` [compound 374], the IC50 runs as follows: under setting [1], less than 50 nM; under setting [2], 20.5 nM. As for `CCN(c1ncc2nc(C)n(CC#Cc3ccc(Cl)cc3-c3ccnc4c(C(=O)NS(=O)(=O)C(F)(F)F)csc34)c(=O)c2c1C#N)C1CCN(C2COC2)CC1` [compound 1744], the IC50 under setting [3] was 11.5 nM. `Cc1nc2cncc(C#N)c2c(=O)n1CCOc1ccc(Cl)cc1-c1ccc(C(=O)O)c(C(=O)O)c1` [compound 147]: the IC50 runs as follows: under setting [1], less than 50 nM; under setting [2], 14.7 nM. Taken in the same sequence, the figures for `N#Cc1cccc2c(=O)n(CCOc3ccc(Cl)cc3-c3cccc(C(=O)O)c3)cnc12` [compound 75] were more than 1000 nM and 1400 nM. Take `Cc1cc(-c2cc(Cl)ccc2OCCn2c(C)nc3c(-c4ccccc4)nc(N4CCN(C)CC4)c(C#N)c3c2=O)c2scc(C(=O)O)c2n1` [compound 1217]: the IC50 reads like this: under setting [1], less than 50 nM; under setting [3], 24.2 nM. Consider `Cc1cc(-c2cc(Cl)ccc2OCCn2c(C)nc3c(C)nc(-c4ccccc4)c(C#N)c3c2=O)c2scc(C(=O)O)c2n1` [compound 737], for which the IC50 under setting [1] was less than 50 nM and the IC50 under setting [2] was 12.3 nM.

Consider `Cc1nc2ccc(S(=O)(=O)N3CCC3)c(C#N)c2c(=O)n1CCOc1ccc(Cl)cc1-c1ccnc2c(C(=O)O)csc12` [compound 248], for which the IC50 by setting is: under setting [1], 50 to 1000 nM; under setting [2], 52.3 nM. Taken in the same sequence, the figures for `Cc1sc2c(-c3cc(Cl)ccc3OCCn3c(C)nc4cc(C(F)(F)F)c(C)c(C#N)c4c3=O)cn(C)c(=O)c2c1C(=O)O` [compound 899] were less than 50 nM and 7.44 nM. In the same order, the values of `Cc1cc(-c2cc(Cl)ccc2OCCn2c(C)nc3c(C)ncc(C#N)c3c2=O)c2scc(C(O)C(F)(F)F)c2n1` (centres unmarked) [compound 733] are more than 1000 nM and 1730 nM. Taken in the same sequence, the figures for `COc1c(N)cc(-c2cc(Cl)ccc2OCCn2cnc3cnc(C#N)cc3c2=O)cc1C(=O)O` [compound 114] were 50 to 1000 nM and 333 nM. Regarding `Cc1cc(-c2cc(Cl)ccc2OCCn2c(C)nc3cc(Cl)c(-c4cc(F)cnc4C)c(C#N)c3c2=O)c2scc(C(=O)O)c2n1` [compound 392], the IC50 under setting [1] is less than 50 nM and the IC50 under setting [2] is 25.1 nM. `Cc1nc2cc(C(F)(F)F)c(N3CCN(C4CC4)CC3)c(C#N)c2c(=O)n1CCOc1ccc(Cl)cc1-c1ccnc2c(P(=O)(O)O)csc12` [compound 1615]: the IC50 under setting [3] was 14.7 nM. As to `Cc1nc2ccc(C#N)c(C#N)c2c(=O)n1CCOc1ccc(Cl)cc1-c1ccnc2c(C(=O)O)csc12` [compound 228], the IC50 by setting is: under setting [1], less than 50 nM; under setting [2], 23.5 nM. `Cc1cc(-c2cc(Cl)ccc2OCCn2c(C)nc3cc(C(F)(F)F)c(-c4cnc(C)c(C)n4)c(C#N)c3c2=O)c2scc(C(=O)O)c2n1` [compound 969]: the IC50 was less than 50 nM under setting [1] and 5.56 nM under setting [2]. Taken in the same sequence, the figures for `Cc1nc2c(N(C)C3CCN(CC(F)(F)F)CC3)ncc(C#N)c2c(=O)n1CCOc1ccc(Cl)cc1-c1ccnc2c(C(=O)O)csc12` [compound 861] were less than 50 nM and 24.6 nM. In the same order, the values of `Cc1cc(-c2cc(Cl)ccc2OCCn2c(C)nc3c(C)nc(-c4cc(F)ccc4C)c(C#N)c3c2=O)c2scc(C(=O)O)c2n1` [compound 927] are less than 50 nM and 6.34 nM.

Take `Cc1sc2c(-c3cc(Cl)ccc3OCCn3c(C)nc4cc(C(F)(F)F)c(N5CCN(C)CC5)c(C#N)c4c3=O)ccc(F)c2c1C(=O)O` [compound 1286]: the IC50 under setting [3] is 34.2 nM. Regarding `Cc1nc2cnc(N3CCC(C)(N(C)CC(F)F)CC3)c(C#N)c2c(=O)n1CC#Cc1ccc(Cl)cc1-c1ccnc2c(C(=O)O)csc12` [compound 1414], the IC50 under setting [3] is 15.3 nM. On the same count and under the same terms, next, `Cc1cc(-c2cc(Cl)ccc2OCCn2c(C)nc3c(C#N)nc(C4CC4)c(C)c3c2=O)c2scc(C(=O)O)c2n1` [compound 1964]: 49.8 nM.

On to `O=C(O)c1cccc(-c2cc(Cl)ccc2OCCn2cnc3cnc(-n4cccn4)cc3c2=O)c1` [compound 136], for which the IC50 was 50 to 1000 nM under setting [1] and 199 nM under setting [2].
